In patent US20260146035A1, “FUSED BICYCLIC COMPOUNDS AND THEIR USE AS MER AND AXL INHIBITORS” (DONG-A ST CO., LTD., priority 2022, published 2026):
Read-outs that look alike come from different tables or passages of the source.

Assays:
[1] = target: T1, human TYRO3 (455-end) (Homo sapiens, UniProt Q06418); test: HTRF kinase activity biochemical assay, TYRO3; conditions: 10 μM ATP, 30 minutes pre-incubation; read-out: HTRF TYRO IC50
T1 construct: TYRO3 (455-end); purchased SignalChem, Canada
T1 sequence (Q06418 455-890 limits assumed): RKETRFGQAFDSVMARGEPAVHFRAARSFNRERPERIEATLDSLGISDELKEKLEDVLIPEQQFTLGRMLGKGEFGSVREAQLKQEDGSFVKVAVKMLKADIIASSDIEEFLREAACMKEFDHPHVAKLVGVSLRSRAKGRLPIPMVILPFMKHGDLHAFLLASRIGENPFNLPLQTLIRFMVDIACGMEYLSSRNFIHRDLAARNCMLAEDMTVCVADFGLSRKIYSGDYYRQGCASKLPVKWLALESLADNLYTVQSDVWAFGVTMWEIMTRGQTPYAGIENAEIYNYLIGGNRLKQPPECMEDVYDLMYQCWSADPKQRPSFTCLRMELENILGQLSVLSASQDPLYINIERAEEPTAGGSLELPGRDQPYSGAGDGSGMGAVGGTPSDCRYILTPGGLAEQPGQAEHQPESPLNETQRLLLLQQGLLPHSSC

[2] = system: phospho-MerTK in BaF3.MerTK tumors; test: In vivo Ba/F3 pMER ALISA assay; conditions: orally; for % inhibition: 50 milligrams per kilogram, single dose, tumors harvested 4 hours after, phospho-MerTK normalized to total MerTK
Procedure: BaF3.MerTK tumor cells were mixed with 50% Matrigel (BD, Franklin Lakes, NJ). […] Tumors were allocated into dose groups at 10 to 11 days post tumor cell inoculation, when they were roughly 250-400 mm^3 in size. Test compounds were formulated in 10% ethanol, 30% PEG-400, and 60% Phosal-50PG, for oral dosing at 0.2 mL per dose per mouse. Plasma and tumors were harvested 4 hours after a single dose. Ba/F3 tumors were harvested into 2 mL Precellys CKmix tubes, snap frozen in liquid nitrogen, and stored at −80° C. overnight. […] Precellys tubes were then centrifuged at >18,000 g for 20 minutes at 4° C. and the supernatant was collected on ice. The lysate was then centrifuged again at >18,000 g for 10 minutes at 4° C. to remove any residual debris. […] Plates were then frozen at −80° C. overnight.

[3] = target: T2, human MER (528-end) (Homo sapiens, UniProt Q12866); test: HTRF kinase activity biochemical assay, MER
T2 construct: human MER (528-end); purchased Camnabio, Japan
T2 sequence (Q12866 528-999 limits assumed): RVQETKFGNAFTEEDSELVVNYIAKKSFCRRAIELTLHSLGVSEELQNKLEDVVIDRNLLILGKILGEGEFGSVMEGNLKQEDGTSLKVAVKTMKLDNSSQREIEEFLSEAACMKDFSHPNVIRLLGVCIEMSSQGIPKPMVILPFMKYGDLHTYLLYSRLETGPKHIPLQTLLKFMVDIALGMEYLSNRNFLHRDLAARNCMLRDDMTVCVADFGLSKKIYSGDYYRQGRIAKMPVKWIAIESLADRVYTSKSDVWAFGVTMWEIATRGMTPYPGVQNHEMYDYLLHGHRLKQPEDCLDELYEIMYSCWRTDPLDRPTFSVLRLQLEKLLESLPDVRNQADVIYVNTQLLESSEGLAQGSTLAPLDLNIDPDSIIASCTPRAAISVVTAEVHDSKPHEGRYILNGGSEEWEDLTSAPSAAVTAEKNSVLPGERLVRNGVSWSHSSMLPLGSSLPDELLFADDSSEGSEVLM

[4] = target: T3, human AXL (473-end) (Homo sapiens, UniProt P30530); test: HTRF kinase activity biochemical assay, AXL
T3 construct: human AXL (473-end); purchased SignalChem, Canada
T3 sequence (P30530 473-894 limits assumed): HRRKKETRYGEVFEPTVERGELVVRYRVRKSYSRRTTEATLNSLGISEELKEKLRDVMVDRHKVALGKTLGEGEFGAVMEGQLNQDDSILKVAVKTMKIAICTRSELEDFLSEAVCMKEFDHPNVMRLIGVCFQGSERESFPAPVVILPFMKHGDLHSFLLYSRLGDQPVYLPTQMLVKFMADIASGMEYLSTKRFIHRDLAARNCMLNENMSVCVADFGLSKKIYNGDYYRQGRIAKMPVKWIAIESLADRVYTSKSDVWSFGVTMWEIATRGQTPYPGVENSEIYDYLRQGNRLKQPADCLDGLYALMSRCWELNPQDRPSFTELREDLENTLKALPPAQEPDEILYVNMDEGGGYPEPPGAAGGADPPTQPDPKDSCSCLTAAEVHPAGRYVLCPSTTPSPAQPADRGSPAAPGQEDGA

[5] = 10 μM ATP, 30 minutes pre-incubation, read-out: HTRF MERTK IC50
[6] = 10 μM ATP, 30 minutes pre-incubation

Compound | IC50 [1] | IC50 [3, 5] | IC50 [4, 6] | IC50 ([3]; in vitro, read-out: HTRF MerTK IC50) | IC50 ([4]; in vitro) | % inhibition [2] | % inhibition in the in vivo Ba/F3 pMer ALISA Assay ([2]; as shown in Tables 3 and 4: 50 milligrams per kilogram)
Cn1cc(-c2cnc(N)c(C(=O)N[C@H]3CCC[C@@H]3OCc3ccc(-c4ccc5c(c4)CCC[C@@H]5N4CCN(C[C@H](O)CO)CC4)cc3)c2)cn1 [Example 171, 2-amino-N-[(1S,2S)-2-({4-[(5S)-5-{4-[(2S)-2,3-dihydroxypropyl]piperazin-1-yl}-5,6,7,8-tetrahydronaphthalen-2-yl]phenyl}methoxy)cyclopentyl]-5-(1-methyl-1H-pyrazol-4-yl)pyridine-3-carboxamide] | 10 to 100 nM | < 10 nM | < 10 nM |  |  | 94% | 
Cn1cc(-c2cnc(N)c(C(=O)N[C@H]3CCC[C@@H]3OCc3ccc(-c4ccc5c(c4)C(C)(C)CC5N4CCN(CCO)CC4)cc3)c2)cn1 (stereo partly drawn) [Example 83, 2-amino-N-{(1S,2S)-2-[(4-{1-[4-(2-hydroxyethyl)piperazin-1-yl]-3,3-dimethyl-2,3-dihydro-1H-inden-5-yl}phenyl)methoxy]cyclopentyl}-5-(1-methyl-1H-pyrazol-4-yl)pyridine-3-carboxamide] | < 10 nM | < 10 nM | < 10 nM | < 10 nM | < 10 nM | 58% | 58%
Cn1cc(-c2cnc(N)c(C(=O)N[C@H]3CCC[C@@H]3OCc3ccc(-c4ccc5c(c4)C(C)(C)C[C@@H]5N4CCN(C[C@H](O)CO)CC4)cc3)c2)cn1 [Example 169, 2-amino-N-[(1S,2S)-2-({4-[(1S)-1-{4-[(2S)-2,3-dihydroxypropyl]piperazin-1-yl}-3,3-dimethyl-2,3-dihydro-1H-inden-5-yl]phenyl}methoxy)cyclopentyl]-5-(1-methyl-1H-pyrazol-4-yl)pyridine-3-carboxamide] | < 10 nM | < 10 nM | < 10 nM |  |  | 76% | 
CN(CCC(O)CO)C1CCc2cc(-c3ccc(CO[C@H]4CCC[C@@H]4NC(=O)c4cc(-c5cccnc5F)cnc4N)cc3)ccc21 (stereo partly drawn) [Example 127, 6-amino-N-{(1S,2S)-2-[(4-{1-[(3,4-dihydroxybutyl)(methyl)amino]-2,3-dihydro-1H-inden-5-yl}phenyl)methoxy]cyclopentyl}-2′-fluoro[3,3′-bipyridine]-5-carboxamide] | > 1000 nM | 10 to 100 nM | 100 to 1000 nM |  |  |  | 
Cn1cc(-c2cnc(N)c(C(=O)N[C@H]3CCC[C@@H]3OCc3ccc(-c4ccc5c(c4)CCC[C@@H]5N4CCNCC4)cc3)c2)cn1 [Example 141, 2-amino-5-(1-methyl-1H-pyrazol-4-yl)-N-[(1S,2S)-2-({4-[(5S)-5-(piperazin-1-yl)-5,6,7,8-tetrahydronaphthalen-2-yl]phenyl}methoxy)cyclopentyl]pyridine-3-carboxamide] | 10 to 100 nM | < 10 nM | < 10 nM |  |  |  | 
COc1ccnc(N)c1C(=O)N[C@H]1CCC[C@@H]1OCc1ccc(-c2ccc3c(c2)C(C)(C)CC3N2CCN(C)CC2)cc1 (stereo partly drawn) [Example 138, 2-amino-N-[(1S,2S)-2-({4-[3,3-dimethyl-1-(4-methylpiperazin-1-yl)-2,3-dihydro-1H-inden-5-yl]phenyl}methoxy)cyclopentyl]-4-methoxypyridine-3-carboxamide] | 100 to 1000 nM | < 10 nM | < 10 nM |  |  |  | 

More lines, main results first:

IC50 [1] | IC50 [3, 5] | IC50 [4, 6] | IC50 ([3]; in vitro, read-out: HTRF MerTK IC50) | IC50 ([4]; in vitro) | Compound | % inhibition [2] | % inhibition in the in vivo Ba/F3 pMer ALISA Assay ([2]; as shown in Tables 3 and 4: 50 milligrams per kilogram)
10 to 100 nM | < 10 nM | < 10 nM |  |  | CN1CCN(C2CCCc3cc(-c4ccc(CO[C@H]5CCC[C@@H]5NC(=O)c5cc(-c6cnn(C)c6)cnc5N)cc4)ccc32)CC1 (stereo partly drawn) [Example 120, 2-amino-N-[(1S,2S)-2-({4-[5-(4-methylpiperazin-1-yl)-5,6,7,8-tetrahydronaphthalen-2-yl]phenyl}methoxy)cyclopentyl]-5-(1-methyl-1H-pyrazol-4-yl)pyridine-3-carboxamide] | 67% | 
> 1000 nM | < 10 nM | 10 to 100 nM |  |  | CC1(C)OCC(CN2CCN(C3CCc4cc(-c5ccc(CO[C@H]6CCC[C@@H]6NC(=O)c6cc(-c7ccc(F)nc7)cnc6N)cc5)ccc43)CC2)O1 (stereo partly drawn) [Example 78, 6-amino-N-[(1S,2S)-2-{[4-(1-{4-[(2,2-dimethyl-1,3-dioxolan-4-yl)methyl]piperazin-1-yl}-2,3-dihydro-1H-inden-5-yl)phenyl]methoxy}cyclopentyl]-6′-fluoro[3,3′-bipyridine]-5-carboxamide] |  | 
> 1000 nM | < 10 nM | 10 to 100 nM |  |  | Cn1cc(-c2cnc(N)c(C(=O)N[C@H]3CCC[C@@H]3OCc3ccc(-c4ccc5c(C6CCN(CCO)CC6)cn(C)c5c4)cc3)c2)cn1 [Example 26, 2-amino-N-{(1S,2S)-2-[(4-{3-[1-(2-hydroxyethyl)piperidin-4-yl]-1-methyl-1H-indol-6-yl}phenyl)methoxy]cyclopentyl}-5-(1-methyl-1H-pyrazol-4-yl)pyridine-3-carboxamide] |  | 
> 1000 nM | 10 to 100 nM | 10 to 100 nM |  |  | Cn1cc(-c2cnc(N)c(C(=O)N[C@H]3COC[C@@H]3OCc3ccc(-c4ccc5c(ccn5C)c4)cc3)c2)cn1 [Example 16, 2-amino-N-[(3S,4R)-4-{[4-(1-methyl-1H-indol-5-yl)phenyl]methoxy}oxolan-3-yl]-5-(1-methyl-1H-pyrazol-4-yl)pyridine-3-carboxamide] |  | 
10 to 100 nM | < 10 nM | < 10 nM |  |  | CC1(C)CC(N2CCN(CCO)CC2)c2ccc(-c3ccc(CO[C@H]4CCC[C@@H]4NC(=O)c4cc(-c5ccc(F)nc5)cnc4N)cc3)cc21 (stereo partly drawn) [Example 84, 6-amino-6′-fluoro-N-{(1S,2S)-2-[(4-{1-[4-(2-hydroxyethyl)piperazin-1-yl]-3,3-dimethyl-2,3-dihydro-1H-inden-5-yl}phenyl)methoxy]cyclopentyl}[3,3′-bipyridine]-5-carboxamide] |  | 
> 1000 nM | 10 to 100 nM | 100 to 1000 nM |  |  | Cn1cc(-c2cnc(N)c(C(=O)N[C@H]3CCC[C@@H]3OCc3ccc(-c4ccc5c(cnn5C5CCN(CCO)CC5)c4)cc3)c2)cn1 [Example 111, 2-amino-N-{(1S,2S)-2-[(4-{1-[1-(2-hydroxyethyl)piperidin-4-yl]-1H-indazol-5-yl}phenyl)methoxy]cyclopentyl}-5-(1-methyl-1H-pyrazol-4-yl)pyridine-3-carboxamide] |  | 
> 1000 nM | 100 to 1000 nM | 100 to 1000 nM |  |  | Cn1cc(-c2cnc(N)c(C(=O)N[C@H]3CCC[C@@H]3OCc3ccc(-c4ccc5c(c4)NC(=O)C5N4CCN(CCO)CC4)cc3)c2)cn1 (stereo partly drawn) [Example 69, 2-amino-N-{(1S,2S)-2-[(4-{3-[4-(2-hydroxyethyl)piperazin-1-yl]-2-oxo-2,3-dihydro-1H-indol-6-yl}phenyl)methoxy]cyclopentyl}-5-(1-methyl-1H-pyrazol-4-yl)pyridine-3-carboxamide] |  | 
> 1000 nM | 10 to 100 nM | 10 to 100 nM |  |  | Cn1cc(-c2cnc(N)c(C(=O)N[C@H]3CCC[C@@H]3OCc3ccc(-c4ccc5c(ccn5CC(=O)O)c4)cc3)c2)cn1 [Example 61, {5-[4-({[(1S,2S)-2-{[2-amino-5-(1-methyl-1H-pyrazol-4-yl)pyridine-3-carbonyl]amino}cyclopentyl]oxy}methyl)phenyl]-1H-indol-1-yl}acetic acid] |  | 
100 to 1000 nM | < 10 nM | < 10 nM |  |  | Cn1cc(-c2cnc(N)c(C(=O)N[C@H]3CCC[C@@H]3OCc3ccc(-c4ccc5c(c4)C[C@H](F)[C@@H]5N4CCN(CCO)CC4)cc3)c2)cn1 (relative stereo) [Example 85, 2-amino-N-{(1S,2S)-2-[(4-{(1R*,2S*)-2-fluoro-1-[4-(2-hydroxyethyl)piperazin-1-yl]-2,3-dihydro-1H-inden-5-yl}phenyl)methoxy]cyclopentyl}-5-(1-methyl-1H-pyrazol-4-yl)pyridine-3-carboxamide] |  | 
